Test results reported in patent US6344344B1, “Method for producing uridine-5'-monophosphate by fermentation using mutant strains of coryneform bacteria” (Ajinomoto Co., Inc., priority 1999, dated 2002).
Where two headings read alike, the source gives them in different places.

Tests used:
Format in all cases: cell-based
[1] = test system: Corynebacterium ammoniagenes ATCC 6872; assay: Growth of the strain in the presence of pyrimidine analogues; conditions: basal agar medium A
[2] = test system: Corynebacterium ammoniagenes VKPM B-6307; conditions: for Growth of the strains B-6307: basal agar medium A; for Growth of the strain VKPM B-6307 With addition (medium B): medium B (guanine, arginine, casamino acid added)
[3] = test system: Corynebacterium ammoniagenes LK 40-2 (VKPM B-7811); assay: Growth of the strain in the presence of pyrimidine analogues
Experimental: Corynebacterium ammoniagenes VKPM B-6307 was treated with 50 μg/ml of NTG for 20 minutes followed by ampicillin-enrichment procedure for obtaining mutants which could not utilize uridine effectively as a sole carbon source (uridine was added into liquid medium A of Table 2 instead of glucose). The obtained mutant cells were plated on a medium B of Table 2 supplemented with guanine (100 μg/ml), arginine (500 μg/ml), casamino acids (200 μg/ml) and 100 μg/ml of 5-fluorouridine.
The inoculated plates were incubated at 30° C. for 3 days.
The extent of resistance to various pyrimidine analogues of this strain as well as that of the parent strain VKPM B-6307 is shown in Table 4.
(§1) Extent of resistance of this strain to various pyrimidine analogues as well as that of the parent strains LK 40-2 and LK 75-15 is shown in Table 11.

[4] = test system: Corynebacterium ammoniagenes LK 75-15 (VKPM B-7812); assay: as above
From the text: as §1

[5] = test system: Corynebacterium ammoniagenes LK 75-66 (VKPM B-7813); assay: as above
From the text: as §1

[6] = test system: Corynebacterium ammoniagenes LK 75-15 (VKPM B-7812); assay: as above; remark: listed apart in the source
[7] = medium B with 100 μg/ml analogue, 30° C., 3 days

## O=c1cc[nH]c(=S)[nH]1 [2-Thiouracil]
[1]; analogue 500 μg/ml
  Growth of the strains ATCC6872: −
[1]; analogue 1000 μg/ml
  Growth of the strains ATCC6872: −
[1]; analogue 3000 μg/ml
  Growth of the strains ATCC6872: −
[1]; analogue 5000 μg/ml
  Growth of the strains ATCC6872: −
[2]; Table 4, analogue 1000 μg/ml
  Growth of the strain B-6307: −
[2]; Table 8, analogue 1000 μg/ml
  Growth of the strain B-6307: −
[2]; analogue 500 μg/ml
  Growth of the strains B-6307: +
[2]; analogue 1000 μg/ml
  Growth of the strains B-6307: +
[2]; analogue 3000 μg/ml
  Growth of the strains B-6307: +
[2]; analogue 5000 μg/ml
  Growth of the strains B-6307: +
[3]; Table 4, analogue 1000 μg/ml
  Growth of the strain LK 40-2: +
[3]; Table 11, analogue 1000 μg/ml
  Growth of the strain LK 40-2: +
[4]; Table 11, analogue 1000 μg/ml
  Growth of the Strain LK 75-15: +
[5]; Table 11, analogue 1000 μg/ml
  Growth of the Strain LK 75-66: +
[6]; Table 8, analogue 1000 μg/ml
  Growth of the Strain LK 75-15: +

## O=c1[nH]cc(F)c(=O)[nH]1 [5-Fluorouracil]
[1]; analogue 50 μg/ml
  Growth of the strains ATCC6872: −
[1]; analogue 100 μg/ml
  Growth of the strains ATCC6872: −
[1]; analogue 200 μg/ml
  Growth of the strains ATCC6872: −
[1]; analogue 600 μg/ml
  Growth of the strains ATCC6872: −
[2]; Table 4, analogue 100 μg/ml
  Growth of the strain B-6307: −
[2]; Table 4, analogue 300 μg/ml
  Growth of the strain B-6307: −
[2]; Table 4, analogue 500 μg/ml
  Growth of the strain B-6307: −
[2]; Table 4, analogue 1000 μg/ml
  Growth of the strain B-6307: −
[2]; Table 8, analogue 100 μg/ml
  Growth of the strain B-6307: −
[2]; Table 8, analogue 300 μg/ml
  Growth of the strain B-6307: −
[2]; Table 8, analogue 500 μg/ml
  Growth of the strain B-6307: −
[2]; Table 8, analogue 1000 μg/ml
  Growth of the strain B-6307: −
[2]; analogue 50 μg/ml
  Growth of the strains B-6307: +
[2]; analogue 100 μg/ml
  Growth of the strains B-6307: +
  Growth of the strain VKPM B-6307 No addition (medium A): +
  Growth of the strain VKPM B-6307 With addition (medium B): −
[2]; analogue 200 μg/ml
  Growth of the strains B-6307: +
  Growth of the strain VKPM B-6307 No addition (medium A): +
  Growth of the strain VKPM B-6307 With addition (medium B): −
[2]; analogue 500 μg/ml
  Growth of the strain VKPM B-6307 No addition (medium A): +
  Growth of the strain VKPM B-6307 With addition (medium B): −
[2]; analogue 600 μg/ml
  Growth of the strains B-6307: +
[2]; analogue 1000 μg/ml
  Growth of the strain VKPM B-6307 No addition (medium A): +
  Growth of the strain VKPM B-6307 With addition (medium B): −
[3]; Table 4, analogue 100 μg/ml
  Growth of the strain LK 40-2: +
[3]; Table 4, analogue 300 μg/ml
  Growth of the strain LK 40-2: +
[3]; Table 4, analogue 500 μg/ml
  Growth of the strain LK 40-2: +
[3]; Table 4, analogue 1000 μg/ml
  Growth of the strain LK 40-2: +
[3]; Table 11, analogue 100 μg/ml
  Growth of the strain LK 40-2: +
[3]; Table 11, analogue 300 μg/ml
  Growth of the strain LK 40-2: +
[3]; Table 11, analogue 500 μg/ml
  Growth of the strain LK 40-2: +
[3]; Table 11, analogue 1000 μg/ml
  Growth of the strain LK 40-2: +
[4]; Table 11, analogue 100 μg/ml
  Growth of the Strain LK 75-15: +
[4]; Table 11, analogue 300 μg/ml
  Growth of the Strain LK 75-15: −
[4]; Table 11, analogue 500 μg/ml
  Growth of the Strain LK 75-15: −
[4]; Table 11, analogue 1000 μg/ml
  Growth of the Strain LK 75-15: −
[5]; Table 11, analogue 100 μg/ml
  Growth of the Strain LK 75-66: +
[5]; Table 11, analogue 300 μg/ml
  Growth of the Strain LK 75-66: +
[5]; Table 11, analogue 500 μg/ml
  Growth of the Strain LK 75-66: −
[5]; Table 11, analogue 1000 μg/ml
  Growth of the Strain LK 75-66: −
[6]; Table 8, analogue 100 μg/ml
  Growth of the Strain LK 75-15: +
[6]; Table 8, analogue 300 μg/ml
  Growth of the Strain LK 75-15: −
[6]; Table 8, analogue 500 μg/ml
  Growth of the Strain LK 75-15: −
[6]; Table 8, analogue 1000 μg/ml
  Growth of the Strain LK 75-15: −

## O=c1[nH]c(=O)n([C@@H]2O[C@H](CO)[C@@H](O)[C@H]2O)cc1F [5-Fluouridine]
[1]; analogue 100 μg/ml
  Growth of the strains ATCC6872: −
[1]; analogue 200 μg/ml
  Growth of the strains ATCC6872: −
[1]; analogue 400 μg/ml
  Growth of the strains ATCC6872: −
[1]; analogue 600 μg/ml
  Growth of the strains ATCC6872: −
[2]; Table 4, analogue 100 μg/ml
  Growth of the strain B-6307: −
[2]; Table 4, analogue 300 μg/ml
  Growth of the strain B-6307: −
[2]; Table 4, analogue 500 μg/ml
  Growth of the strain B-6307: −
[2]; Table 4, analogue 1000 μg/ml
  Growth of the strain B-6307: −
[2]; Table 8, analogue 100 μg/ml
  Growth of the strain B-6307: −
[2]; Table 8, analogue 300 μg/ml
  Growth of the strain B-6307: −
[2]; Table 8, analogue 500 μg/ml
  Growth of the strain B-6307: −
[2]; Table 8, analogue 1000 μg/ml
  Growth of the strain B-6307: −
[2]; analogue 100 μg/ml
  Growth of the strains B-6307: +
  Growth of the strain VKPM B-6307 No addition (medium A): +
  Growth of the strain VKPM B-6307 With addition (medium B): −
[2]; analogue 200 μg/ml
  Growth of the strains B-6307: +
  Growth of the strain VKPM B-6307 No addition (medium A): +
  Growth of the strain VKPM B-6307 With addition (medium B): −
[2]; analogue 400 μg/ml
  Growth of the strains B-6307: +
[2]; analogue 500 μg/ml
  Growth of the strain VKPM B-6307 No addition (medium A): +
  Growth of the strain VKPM B-6307 With addition (medium B): −
[2]; analogue 600 μg/ml
  Growth of the strains B-6307: +
[2]; analogue 1000 μg/ml
  Growth of the strain VKPM B-6307 No addition (medium A): +
  Growth of the strain VKPM B-6307 With addition (medium B): −
[2]; [7]
  growth of the parent strain on supplemented medium: could not grow
[3]; Table 4, analogue 100 μg/ml
  Growth of the strain LK 40-2: +
[3]; Table 4, analogue 300 μg/ml
  Growth of the strain LK 40-2: +
[3]; Table 4, analogue 500 μg/ml
  Growth of the strain LK 40-2: +
[3]; Table 4, analogue 1000 μg/ml
  Growth of the strain LK 40-2: +
[3]; Table 11, analogue 100 μg/ml
  Growth of the strain LK 40-2: +
[3]; Table 11, analogue 300 μg/ml
  Growth of the strain LK 40-2: +
[3]; Table 11, analogue 500 μg/ml
  Growth of the strain LK 40-2: +
[3]; Table 11, analogue 1000 μg/ml
  Growth of the strain LK 40-2: +
[3]; [7]
  growth of strain LK 40-2 on supplemented medium: capable of growing
[4]; Table 11, analogue 100 μg/ml
  Growth of the Strain LK 75-15: +
[4]; Table 11, analogue 1000 μg/ml
  Growth of the Strain LK 75-15: −
[5]; Table 11, analogue 100 μg/ml
  Growth of the Strain LK 75-66: +
[5]; Table 11, analogue 300 μg/ml
  Growth of the Strain LK 75-66: +
[5]; Table 11, analogue 500 μg/ml
  Growth of the Strain LK 75-66: +
[5]; Table 11, analogue 1000 μg/ml
  Growth of the Strain LK 75-66: −
[6]; Table 8, analogue 100 μg/ml
  Growth of the Strain LK 75-15: +
[6]; Table 8, analogue 300 μg/ml
  Growth of the Strain LK 75-15: +
[6]; Table 8, analogue 500 μg/ml
  Growth of the Strain LK 75-15: −
[6]; Table 8, analogue 1000 μg/ml
  Growth of the Strain LK 75-15: −
[6]; Table 11, analogue 300 μg/ml
  Growth of the Strain LK 75-15: +
[6]; Table 11, analogue 500 μg/ml
  Growth of the Strain LK 75-15: −

## O=c1cn[nH]c(=O)[nH]1 [6-Azauracil]
[1]; analogue 500 μg/ml
  Growth of the strains ATCC6872: −
[1]; analogue 1000 μg/ml
  Growth of the strains ATCC6872: −
[1]; analogue 3000 μg/ml
  Growth of the strains ATCC6872: −
[1]; analogue 5000 μg/ml
  Growth of the strains ATCC6872: −
[2]; Table 4, analogue 1000 μg/ml
  Growth of the strain B-6307: −
[2]; Table 8, analogue 1000 μg/ml
  Growth of the strain B-6307: −
[2]; analogue 500 μg/ml
  Growth of the strains B-6307: +
[2]; analogue 1000 μg/ml
  Growth of the strains B-6307: +
[2]; analogue 3000 μg/ml
  Growth of the strains B-6307: +
[2]; analogue 5000 μg/ml
  Growth of the strains B-6307: +
[3]; Table 4, analogue 1000 μg/ml
  Growth of the strain LK 40-2: +
[3]; Table 11, analogue 1000 μg/ml
  Growth of the strain LK 40-2: +
[4]; Table 11, analogue 1000 μg/ml
  Growth of the Strain LK 75-15: +
[5]; Table 11, analogue 1000 μg/ml
  Growth of the Strain LK 75-66: +
[6]; Table 8, analogue 1000 μg/ml
  Growth of the Strain LK 75-15: +
